# Reference: patent US20160313301A1, “METHOD FOR PREDICTING ANTITUMOR EFFICACY OF HSP90 INHIBITOR IN CANCER TREATMENT” (NIPPON KAYAKU KABUSHIKI KAISHA, priority 2013, published 2016)
# “Also recorded” adds a separate entry of the source.
# Columns and labels:
# Type in all cases: in vivo
# [1] = tested on: human ovarian cancer cell line ES-2; assay: Anti-tumor test in mice transplanted subcutaneously with tumor (ES-2); conditions: ES-2 s.c. in mice
# Experimental: (§1) Human ovarian cancer cell lines OC-10-JCK, OC-11-JCK, and TOGY-18, and a human breast cancer cell line MC-19-JCK were obtained from Central Institute for Experimental Animals. Cryopreserved tumor pieces were thawed, and then OC-10-JCK, OC-11-JCK, and MC-19-JCK were transplanted subcutaneously to SCID mice, while TOGY-18 was transplanted subcutaneously to nude mice. After the tumors were grown, the tumors were removed and cut into tumor pieces. The tumor pieces were transplanted subcutaneously to SCID mice or nude mice with trocars. The tumors were maintained by repeated transplantation in the same manner as described above to prepare tumors to be transplanted. Human ovarian cancer cell lines ES-2, SK-OV-3, OV-90, and TOV-21G, and a human lung cancer cell line NCI-H1975 were obtained from American Type Culture Collection (ATCC). The SK-OV-3 and NCI-H1975 cell lines were grown in recommended culture media, of which about 1×10^7 cells were suspended into HBSS and then injected subcutaneously to SCID mice. After the cells formed tumors, the tumors were removed and cut into tumor pieces. The tumor pieces were transplanted subcutaneously to SCID mice with trocars. The tumors were maintained by repeated transplantation in the same manner as described above to prepare tumors to be transplanted. […]
# [2] = tested on: human ovarian cancer cells OVCAR-3; assay: Anti-tumor test in mice transplanted subcutaneously with tumor (OVCAR-3)
# [3] = tested on: human ovarian cancer cell line OC-10-JCK; assay: Anti-tumor test in mice transplanted subcutaneously with tumor (OC-10-JCK); conditions: OC-10-JCK s.c. in mice; 40 mg/kg tail vein three times at 4 day intervals
# Experimental: as §1
# [4] = tested on: human ovarian cancer cells 2008; assay: Anti-tumor test in mice transplanted subcutaneously with tumor (2008); conditions: 2008 s.c. in mice
# Experimental: as §1
# [5] = tested on: human ovarian cancer cells SHIN-3; assay: Anti-tumor test in mice transplanted subcutaneously with tumor (SHIN-3); conditions: SHIN-3 s.c. in mice
# Experimental: as §1
# [6] = tested on: human breast cancer cells JIMT-1; assay: Anti-tumor test in mice transplanted subcutaneously with tumor (JIMT-1); conditions: JIMT-1 s.c. in mice; 40 mg/kg three times at 7 day intervals
# Experimental: as §1
# [7] = 40 mg/kg tail vein three times at 4 day intervals
smiles,measurement,setting,value
"CC(C)c1cc(-c2n[nH]c(=O)n2-c2ccc(CN3CCN(C)CC3)cc2)c(O)cc1O [A-1, 5-(2,4-dihydroxy-5-isopropyl-phenyl)-4-[4-(4-methyl-piperazin-1-ylmethyl)-phenyl]-2,4-dihydro-[1,2,4]triazol-3-one]",anti-tumor effect (in words),[1],relatively highly effective
same,T/C % (lowest value from the beginning to the 21st day of administration),[1]; [7],25.6%
same,T/C % (lowest value from the beginning to the 21st day of administration),"[2]; OVCAR-3 s.c. in NOD/SCID mice, 40 mg/kg tail vein three times at 4 day intervals",34.9%
same,anti-tumor effect (in words),[2]; OVCAR-3 s.c. in mice,relatively highly effective
same,T/C % (lowest value from the beginning to the 21st day of administration),[3],50.2%
same,anti-tumor effect (in words),[4],lowly effective
same,T/C % (lowest value from the beginning to the 21st day of administration),[4]; [7],51.7%
same,anti-tumor effect (in words),[5],hardly effective; also recorded: lowly effective
same,T/C % (lowest value from the beginning to the 21st day of administration),[5]; [7],78.1%
same,T/C % (lowest value from the beginning to the 21st day of administration),[6],34.9%
